# Data published in patent publication US9796673B2 (TEVA PHARMACEUTICALS INTERNATIONAL GMBH, priority 2014, dated 2017).
# Structures can show the parent of a compound that is named as a salt.
# Experiments:
# [1] = Dynamic vapor sorption (DVS) hygroscopicity; format: physicochemical; conditions: for Hygroscopicity 40% RH: Table 3, 40% RH; for Hygroscopicity 75% RH: Table 3, 75% RH; for Hygroscopicity 90% RH: Table 3, 90% RH
# Description: DVS—Measurement of Dynamic Vapor Sorption: DVS experiments have been carried out using the DVS-HT instrument (Surface Measurement Systems, London, UK). This instrument measures the uptake and loss of vapor gravimetrically using a recording ultra-microbalance with a mass resolution of ±0.1 μg. The vapor partial pressure (±1.0%) around the sample is controlled by mixing saturated and dry carrier gas streams using electronic mass flow controllers. The desired temperature is maintained at ±0.1° C. […] The sample was loaded and unloaded at 40% RH and 25° C. (typical room conditions). A moisture sorption isotherm was performed as outlined below (2 scans giving 1 complete cycle). The software uses a least squares minimization procedure together with a model of the mass relaxation, to predict an asymptotic value. The measured mass equilibration value must be within 2% of that predicted by the software before proceeding to the next % RH value. The minimum equilibration time was set to 1 hour and the maximum to 4 hours.
# [2] = WO 01/46145 salt; cited from earlier work
# [3] = for pH: pH column of water solubility table (Table 2)
# Description: Estimation of Water Solubility: A kinetic solubility experiment was performed. Powder samples were placed in glass vials and shaken for 20 minutes in water. […] The samples were then centrifuged to insure that no solids remained. The concentration of pridopidine in the supernatant was measured by HPLC and calculated based on a standard curve. […] Excess pridopidine was suspended in the solutions in glass vials and shaken for 72 hours at 25° C. The samples were then centrifuged and the pH of the supernatant was measured. The concentration of pridopdine in the supernatant was measured by HPLC and calculated based on a standard curve.
# [4] = 4 week, 40° C. and 75% RH
# [5] = acid; cited from earlier work
Molecule,Hygroscopicity 40% RH [1] [%],Hygroscopicity 75% RH [1] [%],Hygroscopicity 90% RH [1] [%],pKa1 [5],further results
"CCCN1CCC(c2cccc(S(C)(=O)=O)c2)CC1.CCCN1CCC(c2cccc(S(C)(=O)=O)c2)CC1.O=C(O)CCC(=O)O [Succinate (hemi), pridopidine succinate (hemi)]",3,40,70,,Deliquescence during the DVS test [1]: deliquesced; DVS weight gain ([1]; 40% RH): 3%; DVS weight gain ([1]; 70% RH): 4%; DVS weight gain ([1]; 90% RH): 37%
"Br.CCCN1CCC(c2cccc(S(C)(=O)=O)c2)CC1 [HBr, reference compound]",0.04,0.08,0.12,,
"CCCN1CCC(c2cccc(S(C)(=O)=O)c2)CC1 [Hydrochloride, pridopidine hydrochloride, reference compound]",0.1,0.45,7.3,,relative humidities at which non-hygroscopic [2]: below 86%; relative humidity in excess of which deliquescent [2]: > 86%; pH [3]: 6.0
pridopidine L-malate,0.1,0.2,17.2,,"chemical and physical stability [4]: acceptable; Water solubility, Conc. ([3]; kinetic, in water, shaken 20 minutes): 76 mg/mL; pH [3]: 3.9"
O=S(=O)(O)c1ccccc1 [Benzene sulfonic acid],,,,0.70,
O=S(=O)(O)c1ccc2ccccc2c1 [Naphthalene 2-sulfonic acid],,,,0.17,
pridopidine tosylate,0.02,0.1,0.2,,XRPD pattern before and after the DVS test [1]: no change in XRPD pattern; DVS weight gain ([1]; 40% RH): 0.02%; DVS weight gain ([1]; 70% RH): 0.1%; DVS weight gain ([1]; 90% RH): 0.2%
O=C(O)CO [Glycolic acid],,,,3.28,
